Measurements: patent publication US8940722B2, “Compounds for modulation of orphan nuclear receptor RAR-related orphan receptor-gamma (RORγ, NR1F3) activity and for the treatment of chronic inflammatory and autoimmune disease” (Phenex Pharmaceuticals AG, priority 2010, dated 2015)
pIC50: −log10 of the molar value. Where “and” joins values, the source holds several entries; their conditions need not be identical. Identical values can stand only once.

Target: T1, RORγ ligand binding domain (LBD) (Homo sapiens, UniProt P51449)
T1 construct: made in house; host or cells: E. coli BL-21 (BL3), vector pDEST15
T1 sequence (P51449 269-508 limits assumed): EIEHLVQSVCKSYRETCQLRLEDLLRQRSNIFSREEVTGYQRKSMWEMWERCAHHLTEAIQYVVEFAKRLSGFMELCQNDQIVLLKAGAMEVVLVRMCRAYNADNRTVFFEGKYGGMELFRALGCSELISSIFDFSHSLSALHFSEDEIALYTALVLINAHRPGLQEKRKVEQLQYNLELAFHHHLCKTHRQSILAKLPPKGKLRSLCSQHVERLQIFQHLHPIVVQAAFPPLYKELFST
Experiment: TR-FRET Activity Assay (RORγ-LBD / coactivator peptide interaction)
Format: biochemical
Settings: Table 2; read-out: RORγ activity in the TR-FRET Activity Assay (IC50 FRET), Group
Description: This method measures the ability of putative ligands to modulate the interaction between the purified bacterial expressed RORγ ligand binding domain (LBD) and synthetic N-terminally biotinylated peptides which are derived from nuclear receptor coactivator proteins such as but not limited to SRC1 (NcoA1), SRC2 (NcoA2, TIF2), SRC3 (NcoA3), PGC1α, PGC1β, CBP, GRIP1, TRAP220, RIP140.
The ligand-binding domain (LBD) of RORγ was expressed as fusion protein with GST in […] cells using the vector pDEST15. Cells were lysed by lysozyme-treatment and sonication, and the fusion proteins purified over glutathione sepharose (Pharmacia) according to the manufacturers instructions. For screening of compounds for their influence on the RORγ-peptide interaction, the LANCE technology (Perkin Elmer) was applied. This method relies on the binding dependent energy transfer from a donor to an acceptor fluorophor attached to the binding partner of interest. For ease of handling and reduction of background from compound fluorescence LANCE technology makes use of generic fluorophore labels and time resolved detection assays were done in a final volume of 25 μL in a 384 well plate, in a Tris-based buffer system (20 mM Tris-HCl pH6.8; 60 mM KCl, 1 mM DTT; 5 mM MgCl2; 35 ng/μL BSA), containing 20-60 ng/well recombinantly expressed RORγ-LBD fused to GST, 200-600 nM N-terminally biotinylated peptide, 200 ng/well Streptavidin-xIAPC conjugate (Prozyme) and 6-10 ng/well Eu W1024—antiGST (Perkin Elmer). DMSO content of the samples was kept at 1%.
After generation of the Tris-based buffer system, the potentially RORγ modulating ligands were diluted. […] The LANCE signal was detected by a Perkin Elmer EnVision™ Multilabel Counter. The results were visualized by plotting the ratio between the emitted light at 665 nm and 615 nm. […] Ligands that promote the complex formation induce a concentration-dependent increase in time-resolved fluorescent signal.
To assess the antagonistic potential of the compounds, IC50 values were determined using a Ligand Sensing Assay based on Time-resolved Fluorescence Energy Transfer (TR-FRET) as described above. The normalised TR-FRET assay values, using the following equation: 1000*665 nm measurement value/615 nm measurement value, were transferred to the program GraphPad Prism to generate graphs and dose response curves using the following equation: • Equation: Sigmoidal dose-response (variable slope) Y=Bottom+(Top−Bottom)/(1+10^((Log EC50−X)*HillSlope))
This is identical to the “four parameter logistic equation”. The IC50 values are calculated using this equation.

SMILES | pIC50
COc1ccccc1S(=O)(=O)N1Cc2ccccc2COC[C@H]1Cc1ccccc1 [1/2] | > 6.30 and < 5.70
COc1ccc(F)cc1S(=O)(=O)N1Cc2ccccc2COCC1Cc1ccccc1 (stereo not shown) [1/5] | > 6.30
O=S(=O)(c1cccc2c1OCC2)N1Cc2ccccc2COCC1Cc1ccccc1 (stereo not shown) [1/9] | > 6.30
O=S(=O)(c1cccc2nonc12)N1Cc2ccccc2COCC1Cc1ccccc1 (stereo not shown) [1/10] | > 6.30
O=S(=O)(c1c(Cl)ccc2nonc12)N1Cc2ccccc2COCC1Cc1ccccc1 (stereo not shown) [1/11] | 5.70 to 6.30
Cc1c(F)cccc1S(=O)(=O)N1Cc2ccccc2COCC1Cc1ccccc1 (stereo not shown) [1/17] | 5.70 to 6.30
O=S(=O)(c1c(Cl)cccc1Cl)N1Cc2ccccc2COCC1Cc1ccccc1 (stereo not shown) [1/23] | 5.70 to 6.30
O=S(=O)(c1cc(C(F)(F)F)ccc1F)N1Cc2ccccc2COCC1Cc1ccccc1 (stereo not shown) [1/24] | > 6.30
O=S(=O)(c1ccccc1C(F)(F)F)N1Cc2ccccc2COCC1Cc1ccccc1 (stereo not shown) [1/25] | 5.70 to 6.30
O=S(=O)(c1cc(Cl)sc1Cl)N1Cc2ccccc2COCC1Cc1ccccc1 (stereo not shown) [1/27] | < 5.70
COc1cccc(S(=O)(=O)N2Cc3ccccc3COCC2Cc2ccccc2)c1 (stereo not shown) [1/28] | 5.70 to 6.30
COc1ccc(S(=O)(=O)N2Cc3ccccc3COCC2Cc2ccccc2)cc1 (stereo not shown) [1/29] | < 5.70
Cn1cnc(S(=O)(=O)N2Cc3ccccc3COCC2Cc2ccccc2)c1Cl (stereo not shown) [1/31] | < 5.70
Cc1nn(C)c(Cl)c1S(=O)(=O)N1Cc2ccccc2COCC1Cc1ccccc1 (stereo not shown) [1/32] | < 5.70
COc1ccccc1S(=O)(=O)N1Cc2cc(F)ccc2COCC1Cc1ccccc1 (stereo not shown) [1/33] | < 5.70
COc1ccccc1S(=O)(=O)N1Cc2ccc(F)cc2COCC1Cc1ccccc1 (stereo not shown) [1/35] | < 5.70

SMILES | pIC50
COc1ccccc1S(=O)(=O)N1Cc2cccc(OC)c2COCC1Cc1ccccc1 (stereo not shown) [1/36] | 5.70 to 6.30
COc1ccccc1S(=O)(=O)N1Cc2ccccc2COCC1Cc1ccc(F)cc1 (stereo not shown) [1/37] | 5.70 to 6.30
COc1cccc(CC2COCc3ccccc3CN2S(=O)(=O)c2cccc3cccnc23)c1 (stereo not shown) [1/38] | > 6.30
COC(=O)c1ccccc1S(=O)(=O)N1Cc2ccccc2COCC1Cc1ccccc1 (stereo not shown) [1/39] | 5.70 to 6.30
COc1ccccc1S(=O)(=O)N1Cc2c(Br)cccc2COCC1Cc1ccccc1 (stereo not shown) [3/1] | < 5.70
COc1ccccc1S(=O)(=O)N1Cc2ccccc2COCC1Cc1cccc(Br)c1 (stereo not shown) [3/2] | > 6.30
COc1cccc(-c2cccc(CC3COCc4ccccc4CN3S(=O)(=O)c3ccccc3OC)c2)n1 (stereo not shown) [5/6] | < 5.70
CC(C)(C)OC[C@@H]1COCc2ncccc2CN1S(=O)(=O)c1ccccc1OC(F)(F)F [6/2] | > 6.30
CC(C)(C)OC[C@@H]1COCc2ncccc2CN1S(=O)(=O)c1c(F)cccc1F [6/4] | < 5.70
CC(C)(C)OC[C@@H]1COCc2ncccc2CN1S(=O)(=O)c1cccc2c1OCC2 [6/5] | 5.70 to 6.30
O=S(=O)(c1cccc2cccnc12)N1Cc2ccccc2COC[C@H]1COCc1ccccc1 [16/1] | 5.70 to 6.30
O=S(=O)(c1cccc2cccnc12)N1Cc2ccccc2COC[C@H]1CN1CCCCC1 [17/2] | < 5.70
O=S(=O)(c1ccccc1OC(F)(F)F)N1Cc2nncn2CCC[C@H]1Cc1ccccc1 [31/1] | 5.70 to 6.30
O=S(=O)(c1ccccc1OC(F)(F)F)N1Cc2nccn2CCC[C@H]1Cc1ccccc1 [31/2] | 5.70 to 6.30
O=S(=O)(c1cc(F)ccc1OCCN1CCOCC1)N1Cc2ccccc2COCC1Cc1ccccc1 (stereo not shown) [Preparative Example 11] | < 5.70
CC(C)(C)OC[C@@H]1COCc2ccccc2CN1S(=O)(=O)c1cccc2cccnc12 [Preparative Example 14, (S)-4-(tert-Butoxymethyl)-5-(quinolin-8-ylsulfonyl)-3,4,5,6-tetrahydro-1H-benzo[f][1,4]oxazocine] | > 6.30

The next lines start with the values.

pIC50 | SMILES
> 6.30 | COc1ccc(Cl)cc1S(=O)(=O)N1Cc2ccccc2COCC1Cc1ccccc1 (stereo not shown) [1/6]
> 6.30 | O=S(=O)(c1cccc2nsnc12)N1Cc2ccccc2COCC1Cc1ccccc1 (stereo not shown) [1/12]
5.70 to 6.30 | Cc1ccc2nsnc2c1S(=O)(=O)N1Cc2ccccc2COCC1Cc1ccccc1 (stereo not shown) [1/13]
> 6.30 | O=S(=O)(c1ccccc1F)N1Cc2ccccc2COCC1Cc1ccccc1 (stereo not shown) [1/14]
> 6.30 | O=S(=O)(c1cc(Cl)ccc1F)N1Cc2ccccc2COCC1Cc1ccccc1 (stereo not shown) [1/18]
> 6.30 | N#Cc1ccc(Cl)cc1S(=O)(=O)N1Cc2ccccc2COCC1Cc1ccccc1 (stereo not shown) [1/19]
5.70 to 6.30 | Cc1ccc(Cl)cc1S(=O)(=O)N1Cc2ccccc2COCC1Cc1ccccc1 (stereo not shown) [1/20]
> 6.30 | O=S(=O)(c1c(F)cccc1F)N1Cc2ccccc2COCC1Cc1ccccc1 (stereo not shown) [1/22]
< 5.70 | Cc1nc(S(=O)(=O)N2Cc3ccccc3COCC2Cc2ccccc2)cn1C (stereo not shown) [1/30]
< 5.70 | COc1ccc2c(c1)CN(S(=O)(=O)c1ccccc1OC)C(Cc1ccccc1)COC2 (stereo not shown) [1/34]
> 6.30 | COc1cccc2c1COCC(Cc1ccccc1)N(S(=O)(=O)c1cccc3cccnc13)C2 (stereo not shown) [1/40]
5.70 to 6.30 | COc1ccccc1S(=O)(=O)N1Cc2ccccc2COCC1CC(C)C (stereo not shown) [1/41]
> 6.30 | CCC(C)CC1COCc2ccccc2CN1S(=O)(=O)c1cccc2cccnc12 (stereo not shown) [1/43]
< 5.70 | COc1ccccc1S(=O)(=O)N1Cc2c(cccc2OC)COCC1Cc1ccccc1 (stereo not shown) [5/1]
< 5.70 | COc1ccccc1S(=O)(=O)N1Cc2c(C#N)cccc2COCC1Cc1ccccc1 (stereo not shown) [5/2]
> 6.30 | COc1ccccc1S(=O)(=O)N1Cc2ccccc2COCC1Cc1cccc(C#N)c1 (stereo not shown) [5/3]
< 5.70 | COc1ccccc1S(=O)(=O)N1Cc2ccccc2COCC1Cc1ccc(C#N)cc1 (stereo not shown) [5/4]
< 5.70 | COc1ccccc1S(=O)(=O)N1Cc2ccccc2COCC1Cc1cccc(-c2cncnc2)c1 (stereo not shown) [5/5]
< 5.70 | CC(C)(C)OC[C@@H]1COCc2ncccc2CN1S(=O)(=O)c1cccc2cccnc12 [6/1]
5.70 to 6.30 | CCOc1ccc(F)cc1S(=O)(=O)N1Cc2cccnc2COC[C@H]1COC(C)(C)C [6/3]
< 5.70 | COCCOC[C@@H]1COCc2ccccc2CN1S(=O)(=O)c1cccc2cccnc12 [16/2]
> 6.30 | O=S(=O)(c1cccc2cccnc12)N1Cc2ccccc2COC[C@H]1CN1CCOCC1 [17/4]
5.70 to 6.30 | COc1ccccc1S(=O)(=O)N1Cc2ccccc2CN(C)CC1Cc1ccccc1 (stereo not shown) [Preparative Example 2, 3-Benzyl-2-(2-methoxyphenylsulfonyl)-5-methyl-1,2,3,4,5,6-hexahydrobenzo-[f][1,4]-diazocine]
< 5.70 | COC[C@@H]1COCc2ccccc2CN1S(=O)(=O)c1cccc2cccnc12 [Preparative Example 16, (R)-4-(Methoxymethyl)-5-(quinolin-8-ylsulfonyl)-3,4,5,6-tetrahydro-1H-benzo[f][1,4]oxazocine]
< 5.70 | O=S(=O)(c1cccc2cccnc12)N1Cc2ccccc2COC[C@H]1Cn1cccn1 [Preparative Example 17, (R)-4-((1H-Pyrazol-1-yl)methyl)-5-(quinolin-8-ylsulfonyl)-3,4,5,6-tetrahydro-1H-benzo[f][1,4]oxazocine]
5.70 to 6.30 | C=CC[C@@H]1COCc2ccccc2CN1S(=O)(=O)c1cccc2cccnc12 [Preparative Example 18, (R)-4-Allyl-5-(quinolin-8-ylsulfonyl)-3,4,5,6-tetrahydro-1H-benzo[f][1,4]oxazocine]
